# Assay results: US20210171948A1, “COMPOSITIONS AND METHODS FOR TARGETING GLYPICAN-2 IN THE TREATMENT OF CANCER” (Shepherd Therapeutics, Inc., priority 2019, published 2021)
# d = 2'-deoxy (DNA); r = 2'-OH (RNA)
# Columns and labels:
# SK-N-BE2 cells [1] = assay: Carboplatin IC50 in siRNA-transfected cells, Cell Titer Glo 2.0 viability (Example 6); type: cell-based
# Protocol: (§1) GPC2 mRNA expression was reduced using the indicated siRNAs and changes in cell viability were assessed in multiple neuroblastoma cell lines. Cells were transfected with either a control siRNA or with GPC2 siRNA sequences 3, 5 or 7 from Table 7 using the RNAiMAX Lipofectamine kit (Invitrogen, Carlsbad, Calif.) as previously described in 96 wells for viability assays. Carboplatin was added at increasing concentrations (0 to 150 uM) to transfected cells at 24 hours post transfection. Following a 72 hour incubation period, viability measurements were made using Cell Titer Glo 2.0.
# CHP212 cells [2] = assay: as above; type: cell-based
# Protocol: as §1
# SH-SY5Y cells [3] = assay: as above; type: cell-based
# Protocol: as §1
# CHLA-90 cells [4] = assay: as above; type: cell-based
# Protocol: as §1
# SK-N-BE2 cells [5] = assay: Cyclophosphamide IC50 in siRNA-transfected cells, Cell Titer Glo 2.0 viability (Example 7); type: cell-based
# Protocol: as §1, with “reduced with” for “reduced using”, “assays. Cyclophosphamide” for “assays. Carboplatin”, “concentrations (0-20” for “concentrations (0 to 150”, “24 hr” for “24 hours”
# CHP212 cells [6] = assay: as above; type: cell-based
# Protocol: as §1, with “reduced with” for “reduced using”, “assays. Cyclophosphamide” for “assays. Carboplatin”, “concentrations (0-20” for “concentrations (0 to 150”, “24 hr” for “24 hours”
# SH-SY5Y cells [7] = assay: as above; type: cell-based
# Protocol: as §1, with “reduced with” for “reduced using”, “assays. Cyclophosphamide” for “assays. Carboplatin”, “concentrations (0-20” for “concentrations (0 to 150”, “24 hr” for “24 hours”
# CHLA-90 cells [8] = assay: as above; type: cell-based
# Protocol: as §1, with “reduced with” for “reduced using”, “assays. Cyclophosphamide” for “assays. Carboplatin”, “concentrations (0-20” for “concentrations (0 to 150”, “24 hr” for “24 hours”
# SK-N-BE2 cells [9] = assay: Etoposide IC50 in siRNA-transfected cells, Cell Titer Glo 2.0 viability (Example 9); type: cell-based
# Protocol: as §1, with “reduced” for “reduced using the indicated siRNAs”, “Etoposide” for “Carboplatin”, “(0-15” for “(0 to 150”, “measurement” for “measurements”
# CHP212 cells [10] = assay: as above; type: cell-based
# Protocol: as §1, with “reduced” for “reduced using the indicated siRNAs”, “Etoposide” for “Carboplatin”, “(0-15” for “(0 to 150”, “measurement” for “measurements”
# SH-SY5Y cells [11] = assay: as above; type: cell-based
# Protocol: as §1, with “reduced” for “reduced using the indicated siRNAs”, “Etoposide” for “Carboplatin”, “(0-15” for “(0 to 150”, “measurement” for “measurements”
# CHLA-90 cells [12] = assay: as above; type: cell-based
# Protocol: as §1, with “reduced” for “reduced using the indicated siRNAs”, “Etoposide” for “Carboplatin”, “(0-15” for “(0 to 150”, “measurement” for “measurements”
# GPC2 mRNA = GPC2 mRNA knockdown in neuroblastoma cell lines, representative data from a separate experiment (Tables 10-14); type: cell-based, human; set-up: concentration or dose not given beside the values
# SK-N-BE2 cells [13] = assay: Doxorubicin IC50 in siRNA-transfected cells, Cell Titer Glo viability (Example 8); type: cell-based
# Protocol: as §1, with “reduced” for “reduced using the indicated siRNAs”, “with GPC-2” for “with GPC2”, “assays. Doxorubicin” for “assays. Carboplatin”, “concentrations (0-5” for “concentrations (0 to 150”, “Titer Glo.” for “Titer Glo 2.0.”
# CHP212 cells [14] = assay: as above; type: cell-based
# Protocol: as §1, with “reduced” for “reduced using the indicated siRNAs”, “with GPC-2” for “with GPC2”, “assays. Doxorubicin” for “assays. Carboplatin”, “concentrations (0-5” for “concentrations (0 to 150”, “Titer Glo.” for “Titer Glo 2.0.”
# SH-SY5Y cells [15] = assay: as above; type: cell-based; details: SH-SY5Y cells transfected with the labelled siRNA; doxorubicin added 24 hours post transfection, 72 hour incubation
# Protocol: as §1, with “reduced” for “reduced using the indicated siRNAs”, “with GPC-2” for “with GPC2”, “assays. Doxorubicin” for “assays. Carboplatin”, “concentrations (0-5” for “concentrations (0 to 150”, “Titer Glo.” for “Titer Glo 2.0.”
# CHLA-90 cells [16] = assay: as above; type: cell-based
# Protocol: as §1, with “reduced” for “reduced using the indicated siRNAs”, “with GPC-2” for “with GPC2”, “assays. Doxorubicin” for “assays. Carboplatin”, “concentrations (0-5” for “concentrations (0 to 150”, “Titer Glo.” for “Titer Glo 2.0.”
substance,measurement,setting,value
"GPC2 siRNA 5: siRNA duplex: sense CUCAGUAGCCCAGCACUCU[dT][dT] (SEQ ID NO: 211), anti-sense AGAGUGCUGGGCUACUGAG[dT][dT] (SEQ ID NO: 212) (sense CUCAGUAGCCCAGCACUCUTT; antisense AGAGUGCUGGGCUACUGAGTT; sugars from the 5' end r19 d2, backbone not given here; listed as Homo sapiens)",Data Summary: effect of knockdown on sensitivity to carboplatin,SK-N-BE2 cells [1]; SK-N-BE2,increases sensitivity to
same,IC50,"SK-N-BE2 cells [1]; SK-N-BE2 cells transfected with the labelled siRNA, carboplatin added 24 hours post transfection, 72 hour incubation",11000 nM
same,Data Summary: effect of knockdown on sensitivity to carboplatin,CHP212 cells [2]; CHP212,increases sensitivity to
same,IC50,"CHP212 cells [2]; CHP212 cells transfected with the labelled siRNA, carboplatin added 24 hours post transfection, 72 hour incubation",10400 nM
same,Data Summary: effect of knockdown on sensitivity to carboplatin,SH-SY5Y cells [3]; SH-SY5Y,increases sensitivity to
same,IC50,"SH-SY5Y cells [3]; SH-SY5Y cells transfected with the labelled siRNA, carboplatin added 24 hours post transfection, 72 hour incubation",1550 nM
same,Data Summary: effect of knockdown on sensitivity to carboplatin,CHLA-90 cells [4]; CHLA-90,increases sensitivity to
same,IC50,"CHLA-90 cells [4]; CHLA-90 cells transfected with the labelled siRNA, carboplatin added 24 hours post transfection, 72 hour incubation",100000 nM
same,Data Summary: effect of knockdown on sensitivity to cyclophosphamide,SK-N-BE2 cells [5]; SK-N-BE2,increases sensitivity to
same,IC50,"SK-N-BE2 cells [5]; SK-N-BE2 cells transfected with the labelled siRNA, cyclophosphamide added 24 hr post transfection, 72 hour incubation",1800 nM
same,Data Summary: effect of knockdown on sensitivity to cyclophosphamide,CHP212 cells [6]; CHP212,increases sensitivity to
same,IC50,"CHP212 cells [6]; CHP212 cells transfected with the labelled siRNA, cyclophosphamide added 24 hr post transfection, 72 hour incubation",450 nM
same,Data Summary: effect of knockdown on sensitivity to cyclophosphamide,SH-SY5Y cells [7]; SH-SY5Y,increases sensitivity to
same,IC50,"SH-SY5Y cells [7]; SH-SY5Y cells transfected with the labelled siRNA, cyclophosphamide added 24 hr post transfection, 72 hour incubation",300 nM
same,Data Summary: effect of knockdown on sensitivity to cyclophosphamide,CHLA-90 cells [8]; CHLA-90,increases sensitivity to
same,IC50,"CHLA-90 cells [8]; CHLA-90 cells transfected with the labelled siRNA, cyclophosphamide added 24 hr post transfection, 72 hour incubation",20000 nM
same,Data Summary: effect of knockdown on sensitivity to etoposide,SK-N-BE2 cells [9]; SK-N-BE2,7 increases sensitivity to etoposide
same,IC50,"SK-N-BE2 cells [9]; SK-N-BE2 cells transfected with the labelled siRNA, etoposide added 24 hours post transfection, 72 hour incubation",20 nM
same,Data Summary: effect of knockdown on sensitivity to etoposide,CHP212 cells [10]; CHP212,increases sensitivity to etoposide
same,IC50,"CHP212 cells [10]; CHP212 cells transfected with the labelled siRNA, etoposide added 24 hours post transfection, 72 hour incubation",20 nM
same,Data Summary: effect of knockdown on sensitivity to etoposide,SH-SY5Y cells [11]; SH-SY5Y,7 increases sensitivity to etoposide
same,IC50,"SH-SY5Y cells [11]; SH-SY5Y cells transfected with the labelled siRNA, etoposide added 24 hours post transfection, 72 hour incubation",50 nM
same,Data Summary: effect of knockdown on sensitivity to etoposide,CHLA-90 cells [12]; CHLA-90,increases sensitivity to etoposide
same,IC50,"CHLA-90 cells [12]; CHLA-90 cells transfected with the labelled siRNA, etoposide added 24 hours post transfection, 72 hour incubation",250 nM
same,% KD; percent GPC2 mRNA reduction (knockdown),"GPC2 mRNA; CHLA-90, compared to scrambled siRNA control",55%
same,% KD; percent GPC2 mRNA reduction (knockdown),"GPC2 mRNA; CHLA-136, compared to scrambled siRNA control",35%
same,% KD; percent GPC2 mRNA reduction (knockdown),"GPC2 mRNA; CHLA-172, compared to scrambled siRNA control",8%
same,% KD; percent GPC2 mRNA reduction (knockdown),"GPC2 mRNA; CHP212, compared to scrambled siRNA control",70%
same,% KD; percent GPC2 mRNA reduction (knockdown),"GPC2 mRNA; KELLY, compared to scrambled siRNA control",75%
same,% KD; percent GPC2 mRNA reduction (knockdown),"GPC2 mRNA; SH-SY5Y, compared to scrambled siRNA control",75%
same,% KD; percent GPC2 mRNA reduction (knockdown),"GPC2 mRNA; SK-N-BE2, compared to scrambled siRNA control",68%
same,% KD; percent GPC2 mRNA reduction (knockdown),"GPC2 mRNA; SKNAS, compared to scrambled siRNA control",70%
same,Data Summary: effect of knockdown on sensitivity to doxorubicin,SK-N-BE2 cells [13]; SK-N-BE2,increases sensitivity to
same,IC50,"SK-N-BE2 cells [13]; SK-N-BE2 cells transfected with the labelled siRNA, doxorubicin added 24 hours post transfection, 72 hour incubation",20 nM
same,Data Summary: effect of knockdown on sensitivity to doxorubicin,CHP212 cells [14]; CHP212,does not increase sensitivity
same,IC50,"CHP212 cells [14]; CHP212 cells transfected with the labelled siRNA, doxorubicin added 24 hours post transfection, 72 hour incubation",20 nM
same,IC50,SH-SY5Y cells [15],50 nM
same,Data Summary: effect of knockdown on sensitivity to doxorubicin,CHLA-90 cells [16]; CHLA-90,increases sensitivity to
same,IC50,"CHLA-90 cells [16]; CHLA-90 cells transfected with the labelled siRNA, doxorubicin added 24 hours post transfection, 72 hour incubation",250 nM
